How the values were obtained:
Assay type in all cases: in vivo
Heliothis virescens = Heliothis virescens (tobacco budworm) egg/artificial diet test; settings: 96 h, 200 ppm (concentration in well 18 ppm), eggs 0-24 h old on artificial diet, 4 days, egg mortality, larval mortality, growth regulation
Experimental: Eggs (0-24 h old) were placed in 24-well microtiter plate on artificial diet and treated with test solutions at an application rate of 200 ppm (concentration in well 18 ppm) by pipetting. After an incubation period of 4 days, samples were checked for egg mortality, larval mortality, and growth regulation.

Spodoptera littoralis = Spodoptera littoralis (Egyptian cotton leafworm) leaf disc spray test; settings: foliar, 72 h, 200 ppm spray on cotton leaf discs, L1 larvae, mortality, feeding behavior, growth regulation 3 days after treatment
Text: Cotton leaf discs were placed on agar in a 24-well microtiter plate and sprayed with test solutions at an application rate of 200 ppm. After drying, the leaf discs were infested with 5 L1 larvae. The samples were checked for mortality, feeding behavior, and growth regulation 3 days after treatment (DAT).

Thrips tabaci = Thrips tabaci (onion thrips) leaf disc spray test; settings: foliar, 168 h, 200 ppm spray on sunflower leaf discs, mixed ages, 7 days, mortality
Experimental: [The procedure below names another target; the source lists this target under the same test.] Sunflower leaf discs were placed on agar in a 24-well microtiter plate and sprayed with test solutions at an application rate of 200 ppm. After drying, the leaf discs were infested with an […] population of mixed ages. After an incubation period of 7 days, samples were checked for mortality.

Tetranychus urticae = Tetranychus urticae (two-spotted spider mite) leaf disc spray test; settings: foliar, 192 h, 200 ppm spray on bean leaf discs, mixed ages, 8 days, egg, larval and adult mortality
Text: Bean leaf discs on agar in 24-well microtiter plates were sprayed with test solutions at an application rate of 200 ppm. After drying, the leaf discs are infested with mite populations of mixed ages. 8 days later, discs are checked for egg mortality, larval mortality, and adult mortality.

Diabrotica balteata = Diabrotica balteata (corn root worm) artificial diet test; settings: 120 h, 200 ppm (concentration in well 18 ppm), L2 larvae, 5 days, larval mortality, growth regulation
Experimental: (§1) A 24-well microtiter plate (MTP) with artificial diet was treated with test solutions at an application rate of 200 ppm (concentration in well 18 ppm) by pipetting. After drying, the MTP's were infested with L2 larvae (6-10 per well). After an incubation period of 5 days, samples were checked for larval mortality and growth regulation.

Myzus persicae = Myzus persicae (green peach aphid), systemic test; settings: 144 h, roots of infested pea seedlings in test solution, 6 days, mortality, special effects on the plant
Text: Myzus persicae (Green peach aphid), systemic test: Roots of pea seedlings, infested with an aphid population of mixed ages, are placed directly in the test solutions at an application rate of 12.5 ppm. 6 days after introduction, samples are checked for mortality and special effects on the plant. The following compounds gave at least 80% control of Myzus persicae: A3, B2, B3, B5, B6, B7, B8, B11, B12, C1, C2, C3,C4, C5, C6, C7, D1, E1, E2, G1, G3, G5, G6, H1, H5, H6, H9, H10, H11, H12, H13, H14, H18, H19, H20, H24, H25, and H26.

Plutella xylostella = Plutella xylostella (diamond back moth) artificial diet test; settings: 144 h, 200 ppm (concentration in well 18 ppm), L2 larvae, 6 days, larval mortality, growth regulation
Experimental: as §1, with “24-well” for “A 24-well”, “(7-12” for “(6-10”, “6” for “5”

C#CCN1OC[C@@H](NC(=O)c2ccc(C3=NOC(c4cc(Cl)cc(Cl)c4)(C(F)(F)F)C3)cc2C)C1=O (stereo partly drawn) [Compound B3, 4-[5-(3,5-Dichloro-phenyl)-5-trifluoromethyl-4,5-dihydro-isoxazol-3-yl]-2-methyl-N-((R)-2-propargyl-3-oxo-isoxazolidin-4-yl)-benzamide]
≥ 80%: pest or weed control at 200 ppm (Heliothis virescens) | pest or weed control at 200 ppm (Spodoptera littoralis) | pest or weed control at 200 ppm (Thrips tabaci) | pest or weed control at 200 ppm (Tetranychus urticae) | pest or weed control at 200 ppm (Diabrotica balteata) | pest or weed control at 12.5 ppm (Myzus persicae) | pest or weed control at 200 ppm (Plutella xylostella)

CCN1OC[C@@H](NC(=O)c2ccc(C3=NOC(c4cc(Cl)cc(Cl)c4)(C(F)(F)F)C3)cc2C)C1=O (stereo partly drawn) [Compound B6, 4-[5-(3,5-Dichloro-phenyl)-5-trifluoromethyl-4,5-dihydro-isoxazol-3-yl]-2-methyl-N-((R)-2-ethyl-3-oxo-isoxazolidin-4-yl)-benzamide]
≥ 80%: pest or weed control at 200 ppm (Heliothis virescens) | pest or weed control at 200 ppm (Spodoptera littoralis) | pest or weed control at 200 ppm (Thrips tabaci) | pest or weed control at 200 ppm (Tetranychus urticae) | pest or weed control at 200 ppm (Diabrotica balteata) | pest or weed control at 12.5 ppm (Myzus persicae) | pest or weed control at 200 ppm (Plutella xylostella)

COCCN1OC[C@@H](NC(=O)c2ccc(C3=NOC(c4cc(Cl)cc(Cl)c4)(C(F)(F)F)C3)cc2C)C1=O (stereo partly drawn) [Compound B7, 4-[5-(3,5-Dichloro-phenyl)-5-trifluoromethyl-4,5-dihydro-isoxazol-3-yl]-2-methyl-N-((R)-2-(2-methoxyethyl)-3-oxo-isoxazolidin-4-yl)-benzamide]
≥ 80%: pest or weed control at 200 ppm (Heliothis virescens) | pest or weed control at 200 ppm (Spodoptera littoralis) | pest or weed control at 200 ppm (Thrips tabaci) | pest or weed control at 200 ppm (Tetranychus urticae) | pest or weed control at 200 ppm (Diabrotica balteata) | pest or weed control at 12.5 ppm (Myzus persicae) | pest or weed control at 200 ppm (Plutella xylostella)

CCCCN1OC[C@@H](NC(=O)c2ccc(C3=NOC(c4cc(Cl)cc(Cl)c4)(C(F)(F)F)C3)cc2C)C1=O (stereo partly drawn) [Compound B8, 4-[5-(3,5-Dichloro-phenyl)-5-trifluoromethyl-4,5-dihydro-isoxazol-3-yl]-2-methyl-N-((R)-2-butyl-3-oxo-isoxazolidin-4-yl)-benzamide]
≥ 80%: pest or weed control at 200 ppm (Heliothis virescens) | pest or weed control at 200 ppm (Spodoptera littoralis) | pest or weed control at 200 ppm (Thrips tabaci) | pest or weed control at 200 ppm (Tetranychus urticae) | pest or weed control at 200 ppm (Diabrotica balteata) | pest or weed control at 12.5 ppm (Myzus persicae) | pest or weed control at 200 ppm (Plutella xylostella)

Cc1cc(C2=NOC(c3cc(Cl)cc(Cl)c3)(C(F)(F)F)C2)ccc1C(=O)N[C@@H]1CON(C2COC2)C1=O (stereo partly drawn) [Compound B12, 4-[5-(3,5-Dichloro-phenyl)-5-trifluoromethyl-4,5-dihydro-isoxazol-3-yl]-2-methyl-N-((R)-2-(oxetan-3-yl)-3-oxo-isoxazolidin-4-yl)-benzamide]
≥ 80%: pest or weed control at 200 ppm (Heliothis virescens) | pest or weed control at 200 ppm (Spodoptera littoralis) | pest or weed control at 200 ppm (Thrips tabaci) | pest or weed control at 200 ppm (Tetranychus urticae) | pest or weed control at 200 ppm (Diabrotica balteata) | pest or weed control at 12.5 ppm (Myzus persicae) | pest or weed control at 200 ppm (Plutella xylostella)

CCN1OC[C@@H](NC(=O)c2ccc(C3=NOC(c4cc(Cl)c(Cl)c(Cl)c4)(C(F)(F)F)C3)cc2C)C1=O (stereo partly drawn) [Compound C1, 4-[5-(3,4,5-Trichloro-phenyl)-5-trifluoromethyl-4,5-dihydro-isoxazol-3-yl]-2-methyl-N-((R)-2-ethyl-3-oxo-isoxazolidin-4-yl)-benzamide]
≥ 80%: pest or weed control at 200 ppm (Heliothis virescens) | pest or weed control at 200 ppm (Spodoptera littoralis) | pest or weed control at 200 ppm (Thrips tabaci) | pest or weed control at 200 ppm (Tetranychus urticae) | pest or weed control at 200 ppm (Diabrotica balteata) | pest or weed control at 12.5 ppm (Myzus persicae) | pest or weed control at 200 ppm (Plutella xylostella)

CCN1OC[C@@H](NC(=O)c2ccc(C3=NOC(c4cc(Cl)c(Br)c(Cl)c4)(C(F)(F)F)C3)cc2C)C1=O (stereo partly drawn) [Compound C2, 4-[5-(3,5-Dichloro-4-bromo-phenyl)-5-trifluoromethyl-4,5-dihydro-isoxazol-3-yl]-2-methyl-N-((R)-2-ethyl-3-oxo-isoxazolidin-4-yl)-benzamide]
≥ 80%: pest or weed control at 200 ppm (Heliothis virescens) | pest or weed control at 200 ppm (Spodoptera littoralis) | pest or weed control at 200 ppm (Thrips tabaci) | pest or weed control at 200 ppm (Tetranychus urticae) | pest or weed control at 200 ppm (Diabrotica balteata) | pest or weed control at 12.5 ppm (Myzus persicae) | pest or weed control at 200 ppm (Plutella xylostella)

CCN1OC[C@@H](NC(=O)c2ccc(C3=NOC(c4cc(Cl)c(F)c(Cl)c4)(C(F)(F)F)C3)cc2C)C1=O (stereo partly drawn) [Compound C3, 4-[5-(3,5-Dichloro-4-fluoro-phenyl)-5-trifluoromethyl-4,5-dihydro-isoxazol-3-yl]-2-methyl-N-((R)-2-ethyl-3-oxo-isoxazolidin-4-yl)-benzamide]
≥ 80%: pest or weed control at 200 ppm (Heliothis virescens) | pest or weed control at 200 ppm (Spodoptera littoralis) | pest or weed control at 200 ppm (Thrips tabaci) | pest or weed control at 200 ppm (Tetranychus urticae) | pest or weed control at 200 ppm (Diabrotica balteata) | pest or weed control at 12.5 ppm (Myzus persicae) | pest or weed control at 200 ppm (Plutella xylostella)

CCN1OC[C@@H](NC(=O)c2ccc(C3=NOC(c4cc(F)cc(Cl)c4)(C(F)(F)F)C3)cc2C)C1=O (stereo partly drawn) [Compound C5, 4-[5-(3-chloro-5-fluoro-phenyl)-5-trifluoromethyl-4,5-dihydro-isoxazol-3-yl]-2-methyl-N-((R)-2-ethyl-3-oxo-isoxazolidin-4-yl)-benzamide]
≥ 80%: pest or weed control at 200 ppm (Heliothis virescens) | pest or weed control at 200 ppm (Spodoptera littoralis) | pest or weed control at 200 ppm (Thrips tabaci) | pest or weed control at 200 ppm (Tetranychus urticae) | pest or weed control at 200 ppm (Diabrotica balteata) | pest or weed control at 12.5 ppm (Myzus persicae) | pest or weed control at 200 ppm (Plutella xylostella)

Cc1cc(C2=NOC(c3cc(Cl)cc(Cl)c3)(C(F)(F)F)C2)ncc1C(=O)N[C@@H]1CON(CC(F)(F)F)C1=O (stereo partly drawn) [Compound C6, 6-[5-(3,5-Dichloro-phenyl)-5-trifluoromethyl-4,5-dihydro-isoxazol-3-yl]-4-methyl-N— [(R)-3-oxo-2-(2,2,2-trifluoro-ethyl)-isoxazolidin-4-yl]-nicotinamide]
≥ 80%: pest or weed control at 200 ppm (Heliothis virescens) | pest or weed control at 200 ppm (Spodoptera littoralis) | pest or weed control at 200 ppm (Thrips tabaci) | pest or weed control at 200 ppm (Tetranychus urticae) | pest or weed control at 200 ppm (Diabrotica balteata) | pest or weed control at 12.5 ppm (Myzus persicae) | pest or weed control at 200 ppm (Plutella xylostella)

CCN1CC(CNC(=O)c2ccc(C3=NOC(c4cc(Cl)cc(Cl)c4)(C(F)(F)F)C3)cc2C)CS1(=O)=O (stereo not shown) [Compound D1, 4-[5-(3,5-Dichloro-phenyl)-5-trifluoromethyl-4,5-dihydro-isoxazol-3-yl]-N-(2-ethyl-1,1-dioxo-1lambda*6*-isothiazolidin-4-ylmethyl)-2-methl-benzamide]
≥ 80%: pest or weed control at 200 ppm (Heliothis virescens) | pest or weed control at 200 ppm (Spodoptera littoralis) | pest or weed control at 200 ppm (Thrips tabaci) | pest or weed control at 200 ppm (Tetranychus urticae) | pest or weed control at 200 ppm (Diabrotica balteata) | pest or weed control at 12.5 ppm (Myzus persicae) | pest or weed control at 200 ppm (Plutella xylostella)

Cc1cc(C2=NOC(c3cc(Cl)cc(Cl)c3)(C(F)(F)F)C2)ccc1C(=O)N[C@H]1CON(C)C1=O (stereo partly drawn) [Compound E1, 4-[5-(3,5-Dichloro-phenyl)-5-trifluoromethyl-4,5-dihydro-isoxazol-3-yl]-2-methyl-N-((S)-2-methyl-3-oxo-isoxazolidin-4-yl)-benzamide]
≥ 80%: pest or weed control at 200 ppm (Heliothis virescens) | pest or weed control at 200 ppm (Spodoptera littoralis) | pest or weed control at 200 ppm (Thrips tabaci) | pest or weed control at 200 ppm (Tetranychus urticae) | pest or weed control at 200 ppm (Diabrotica balteata) | pest or weed control at 12.5 ppm (Myzus persicae) | pest or weed control at 200 ppm (Plutella xylostella)

CCN1OC[C@H](NC(=O)c2ccc(C3=NOC(c4cc(Cl)cc(Cl)c4)(C(F)(F)F)C3)cc2C)C1=O (stereo partly drawn) [Compound E2, 4-[5-(3,5-Dichloro-phenyl)-5-trifluoromethyl-4,5-dihydro-isoxazol-3-yl]-2-methyl-N-((S)-2-ethyl-3-oxo-isoxazolidin-4-yl)-benzamide]
≥ 80%: pest or weed control at 200 ppm (Heliothis virescens) | pest or weed control at 200 ppm (Spodoptera littoralis) | pest or weed control at 200 ppm (Thrips tabaci) | pest or weed control at 200 ppm (Tetranychus urticae) | pest or weed control at 200 ppm (Diabrotica balteata) | pest or weed control at 12.5 ppm (Myzus persicae) | pest or weed control at 200 ppm (Plutella xylostella)

Source: patent US10206400B2, “Insecticidal compounds based on isoxazoline derivatives” (Syngenta Crop Protection LLC, priority 2009, dated 2019)
